Measured values taken from US9732119B2, “Immunomodulators” (BRISTOL-MYERS SQUIBB COMPANY, priority 2014, dated 2017).
Positions of bridges follow the written chain, without caps; N, C: chain ends. Non-standard residues stand in square brackets, D forms with d. Residues, ends and D or L forms follow the SMILES beside them. Trp(1-CH2COOH) = N[C@@H](Cc1cn(CC(=O)O)c2ccccc12)C(=O)O; Phe(4-F) = N[C@@H](Cc1ccc(F)cc1)C(=O)O; Hyp = O=C(O)[C@@H]1C[C@@H](O)CN1; Aad = N[C@@H](CCCC(=O)O)C(=O)O; NMeNle = CCCC[C@H](NC)C(=O)O; dOrn = NCCC[C@@H](N)C(=O)O; Pip = O=C(O)[C@@H]1CCCCN1; NMeA = CN[C@@H](C)C(=O)O; Orn = NCCC[C@H](N)C(=O)O; Dab = NCC[C@H](N)C(=O)O; Dap = NC[C@H](N)C(=O)O; Ava = NCCCCC(=O)O; βAla = NCCC(=O)O

The compounds below were run against T1, PD-1-Ig binding to PD-L1-TVMV-His (PD-L1-His) (Homo sapiens, UniProt Q9NZQ7) (assay: PD-1/PD-L1 Homogenous Time-Resolved Fluorescence (HTRF) binding assay). Conditions: PD-1-Ig (20 nM) / PD-L1-His (10 nM); range classes.
T1 construct: hPDL1(19-239)-TVMV-His; made in house; host or cells: HEK293T cells
Method in brief: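 In dPBS with 0.1% BSA and 0.05% Tween-20, inhibitors were preincubated 15 min with 10 nM PD-L1-His before 20 nM PD-1-Ig was added for another 15 min. Binding read by time-resolved FRET between Eu-cryptate anti-Ig (1 nM) and APC anti-His (20 nM).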

T1 sequence (Q9NZQ7 with tags, fused parts or gaps): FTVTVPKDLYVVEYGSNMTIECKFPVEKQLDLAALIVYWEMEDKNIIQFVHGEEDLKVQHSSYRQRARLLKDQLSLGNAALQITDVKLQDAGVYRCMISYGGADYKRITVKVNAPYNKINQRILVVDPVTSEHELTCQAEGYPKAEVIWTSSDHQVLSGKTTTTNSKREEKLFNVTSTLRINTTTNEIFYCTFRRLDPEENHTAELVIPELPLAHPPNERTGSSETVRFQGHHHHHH

| SMILES | IC50 [nM] |
| --- | --- |
| CCCC[C@H]1C(=O)N(C)[C@@H](CCCC)C(=O)N[C@@H](CCC(=O)O)C(=O)N[C@H](C(=O)NCC(N)=O)CNCC(=O)N[C@@H](Cc2ccc(F)cc2)C(=O)N(C)[C@@H](C)C(=O)N[C@@H](CC(N)=O)C(=O)N2CCC[C@H]2C(=O)N[C@@H](CCC(N)=O)C(=O)N[C@@H](CCC(=O)O)C(=O)N2C[C@H](O)C[C@H]2C(=O)N[C@@H](Cc2c[nH]c3ccccc23)C(=O)N[C@@H](CC(N)=O)C(=O)N[C@@H](Cc2cn(CC(=O)O)c3ccccc23)C(=O)N1C [Example 9024] | 10 to 99 |
| CCCC[C@H]1C(=O)N(C)[C@@H](CCCC)C(=O)N[C@@H](CC(C)C)C(=O)N[C@H](C(=O)NCC(N)=O)CCCC(=O)N[C@@H](Cc2ccc(O)cc2)C(=O)N2CCCC[C@H]2C(=O)N[C@@H](CC(N)=O)C(=O)N2CCC[C@H]2C(=O)N[C@@H](CN)C(=O)N[C@@H](CC(C)C)C(=O)N2C[C@H](O)C[C@H]2C(=O)N[C@@H](Cc2c[nH]c3ccccc23)C(=O)N[C@@H](CCN)C(=O)N[C@@H](Cc2cn(CC(=O)O)c3ccccc23)C(=O)N1C [Example 10515] (Y[Pip]NP[Dap]L[Hyp]W[Dab][Trp(1-CH2COOH)][NMeNle][NMeNle]L[Aad]G-NH2; lactam N-14) | 10 to 99 |
| CCCC[C@H]1C(=O)N(C)[C@@H](CCCC)C(=O)N[C@@H](CCC(=O)O)C(=O)N[C@H](C(=O)NCC(N)=O)CNCC(=O)N[C@@H](Cc2ccc(F)cc2)C(=O)N(C)[C@@H](C)C(=O)N[C@@H](CC(N)=O)C(=O)N2CCC[C@H]2C(=O)N[C@@H](CCC(N)=O)C(=O)N[C@@H](CC(=O)O)C(=O)N2C[C@H](O)C[C@H]2C(=O)N[C@@H](Cc2c[nH]c3ccccc23)C(=O)N[C@@H](CC(N)=O)C(=O)N[C@@H](Cc2cn(CC(=O)O)c3ccccc23)C(=O)N1C [Example 9023] | 10 to 99 |
| CCCC[C@H]1C(=O)N(C)[C@@H](CCCC)C(=O)N[C@@H](CC(C)C)C(=O)NCCC[C@H](N)C(=O)N[C@@H](Cc2ccc(F)cc2)C(=O)N2CCCC[C@H]2C(=O)N[C@@H](CC(N)=O)C(=O)N2CCC[C@H]2C(=O)N[C@@H](CN)C(=O)N[C@@H](CCC(=O)O)C(=O)N2C[C@H](O)C[C@H]2C(=O)N[C@@H](Cc2c[nH]c3ccccc23)C(=O)N[C@@H](CCN)C(=O)N[C@@H](Cc2cn(CC(=O)O)c3ccccc23)C(=O)N1C [Example 10548] (H-[Orn][Phe(4-F)][Pip]NP[Dap]E[Hyp]W[Dab][Trp(1-CH2COOH)][NMeNle][NMeNle]L; lactam 1-C) | 10 to 99 |
| CCCC[C@H]1C(=O)N(C)[C@@H](CCCC)C(=O)N[C@@H](CC(C)C)C(=O)N2CCC[C@@H]2C(=O)NCC(=O)N[C@@H](Cc2ccc(O)cc2)C(=O)N(C)[C@@H](C)C(=O)N[C@@H](CC(N)=O)C(=O)N2CCC[C@H]2C(=O)N[C@@H](CN)C(=O)N[C@@H](CC(C)C)C(=O)N2C[C@H](O)C[C@H]2C(=O)N[C@@H](Cc2c[nH]c3ccccc23)C(=O)N[C@@H](CCN)C(=O)N[C@@H](Cc2c[nH]c3ccccc23)C(=O)N1C [Example 5008] (cyclo([Dab]W[NMeNle][NMeNle]L[dP]GY[NMeA]NP[Dap]L[Hyp]W)) | 1 to 9.9 |
| CCCC[C@H]1C(=O)N(C)[C@@H](CCCC)C(=O)N[C@@H](CC(C)C)C(=O)NCCC(=O)N[C@@H](Cc2ccc(O)cc2)C(=O)N(C)[C@@H](C)C(=O)N[C@@H](CC(N)=O)C(=O)N2CCC[C@H]2C(=O)N[C@@H](Cc2c[nH]cn2)C(=O)N[C@@H](CC(C)C)C(=O)N2C[C@H](O)C[C@H]2C(=O)N[C@@H](Cc2c[nH]c3ccccc23)C(=O)NCC(=O)N[C@@H](Cc2c[nH]c3ccccc23)C(=O)N1C [Example 5003] (cyclo(GW[NMeNle][NMeNle]L[βAla]Y[NMeA]NPHL[Hyp]W)) | 100 to 10000 |
| CCCC[C@H]1C(=O)N(C)[C@@H](CCCC)C(=O)N[C@@H](CC(C)C)C(=O)N[C@H](C(=O)NCC(N)=O)CCCNCC(=O)N[C@@H](Cc2ccc(O)cc2)C(=O)N(C)[C@@H](C)C(=O)N[C@@H](CC(N)=O)C(=O)N2CCC[C@H]2C(=O)N[C@@H](Cc2cnc[nH]2)C(=O)N[C@@H](CCC(N)=O)C(=O)N2C[C@H](O)C[C@H]2C(=O)N[C@@H](Cc2c[nH]c3ccccc23)C(=O)NCC(=O)N[C@@H](Cc2c[nH]c3ccccc23)C(=O)N1C [Example 10019] | 100 to 10000 |
| CCCC[C@H]1C(=O)N(C)[C@@H](CCCC)C(=O)N[C@@H](CC(C)C)C(=O)NCCC[C@H](N)C(=O)N[C@@H](Cc2ccc(O)cc2)C(=O)N2CCCC[C@H]2C(=O)N[C@@H](CC(N)=O)C(=O)N2CCC[C@H]2C(=O)N[C@@H](CN)C(=O)N[C@@H](CC(C)C)C(=O)N2CCC[C@H]2C(=O)N[C@@H](Cc2c[nH]c3ccccc23)C(=O)N[C@@H](CCN)C(=O)N[C@@H](Cc2cn(CC(=O)O)c3ccccc23)C(=O)N1C [Example 10511] (H-[Orn]Y[Pip]NP[Dap]LPW[Dab][Trp(1-CH2COOH)][NMeNle][NMeNle]L; lactam 1-C) | 100 to 10000 |
| CCCC[C@H]1C(=O)N(C)[C@@H](CCCC)C(=O)NC(CC(C)C)C(=O)N[C@H](C(=O)NCC(N)=O)CNCC(=O)N[C@@H](Cc2ccc(O)cc2)C(=O)N(C)[C@@H](C)C(=O)N[C@@H](CC(N)=O)C(=O)N2CCC[C@H]2C(=O)N[C@@H](CC(N)=O)C(=O)N[C@@H](CC(C)C)C(=O)N2C[C@H](O)C[C@H]2C(=O)N[C@@H](Cc2c[nH]c3ccccc23)C(=O)N[C@@H](CC(N)=O)C(=O)N[C@@H](Cc2c[nH]c3ccccc23)C(=O)N1C (some centres unmarked) [Example 10001] | 1 to 9.9 |
| CCCC[C@H]1C(=O)N(C)[C@@H](CCCC)C(=O)NC(CC(C)C)C(=O)N[C@H](C(=O)NCC(N)=O)CNCC(=O)N[C@@H](Cc2ccc(O)cc2)C(=O)N(C)[C@@H](C)C(=O)N[C@@H](CC(N)=O)C(=O)N2CCC[C@H]2C(=O)N[C@@H](CN)C(=O)N[C@@H](CC(C)C)C(=O)N2C[C@H](O)C[C@H]2C(=O)N[C@@H](Cc2c[nH]c3ccccc23)C(=O)N[C@@H](CCN)C(=O)N[C@@H](Cc2cn(CC(=O)O)c3ccccc23)C(=O)N1C (some centres unmarked) [Example 1030] | 1 to 9.9 |
| CCCC[C@H]1C(=O)N(C)[C@@H](CCCC)C(=O)N[C@@H](CC(C)C)C(=O)N[C@H](C(=O)NCC(N)=O)CNCC(=O)N[C@@H](Cc2ccc(O)cc2)C(=O)N(C)[C@@H](C)C(=O)N[C@@H](CC(N)=O)C(=O)N2CCC[C@H]2C(=O)N[C@@H](Cc2cnc[nH]2)C(=O)N[C@@H](CCC(N)=O)C(=O)N2C[C@H](O)C[C@H]2C(=O)N[C@@H](Cc2c[nH]c3ccccc23)C(=O)N[C@@H](CO)C(=O)N[C@@H](Cc2cn(CC(=O)O)c3ccccc23)C(=O)N1C [Example 10008] | 1 to 9.9 |
| CCCC[C@H]1C(=O)N(C)[C@@H](CCCC)C(=O)N[C@@H](C)C(=O)N[C@H](C(=O)NCC(N)=O)CCNCC(=O)N[C@@H](Cc2ccc(O)cc2)C(=O)N(C)[C@@H](C)C(=O)N[C@@H](CC(=O)O)C(=O)N2CCC[C@H]2C(=O)N[C@@H](Cc2cnc[nH]2)C(=O)N[C@@H](CCC(N)=O)C(=O)N2C[C@H](O)C[C@H]2C(=O)N[C@@H](Cc2c[nH]c3ccccc23)C(=O)N[C@@H](CO)C(=O)N[C@@H](Cc2cn(CC(=O)O)c3ccccc23)C(=O)N1C [Example 10015] | 1 to 9.9 |

More lines, now with the values ahead:

| IC50 [nM] | SMILES |
| --- | --- |
| 1 to 9.9 | CCCC[C@H]1C(=O)N(C)[C@@H](CCCC)C(=O)N[C@@H](CC(C)C)C(=O)N[C@H](C(=O)NCC(N)=O)CNCC(=O)N[C@@H](Cc2ccc(O)cc2)C(=O)N(C)[C@@H](C)C(=O)N[C@@H](CC(N)=O)C(=O)N2CCC[C@H]2C(=O)N[C@@H](CCC(N)=O)C(=O)N[C@@H](CCC(N)=O)C(=O)N2C[C@H](O)C[C@H]2C(=O)N[C@@H](Cc2c[nH]c3ccccc23)C(=O)N[C@@H](CC(N)=O)C(=O)N[C@@H](Cc2cn(CC(=O)O)c3ccccc23)C(=O)N1C [Example 9008] |
| 1 to 9.9 | CCCC[C@H]1C(=O)N(C)[C@@H](CCCC)C(=O)N[C@@H](CC(C)C)C(=O)NCCC[C@@H](N)C(=O)N[C@@H](Cc2ccc(F)cc2)C(=O)N2CCCC[C@H]2C(=O)N[C@@H](CC(N)=O)C(=O)N2CCC[C@H]2C(=O)N[C@@H](CN)C(=O)N[C@@H](CC(C)C)C(=O)N2C[C@H](O)C[C@H]2C(=O)N[C@@H](Cc2c[nH]c3ccccc23)C(=O)N[C@@H](CCN)C(=O)N[C@@H](Cc2cn(CC(=O)O)c3ccccc23)C(=O)N1C [Example 10566] (H-[dOrn][Phe(4-F)][Pip]NP[Dap]L[Hyp]W[Dab][Trp(1-CH2COOH)][NMeNle][NMeNle]L; lactam 1-C) |
| 1 to 9.9 | CCCC[C@H]1C(=O)N(C)[C@@H](CCCC)C(=O)N[C@@H](CC(C)C)C(=O)N[C@H](C(=O)NCC(N)=O)CNCC(=O)N[C@@H](Cc2ccc(OC)cc2)C(=O)N(C)[C@@H](C)C(=O)N[C@@H](CC(N)=O)C(=O)N2CCC[C@H]2C(=O)N[C@@H](CN)C(=O)N[C@@H](CC(C)C)C(=O)N2C[C@H](O)C[C@H]2C(=O)N[C@@H](Cc2c[nH]c3ccccc23)C(=O)N[C@@H](CCN)C(=O)N[C@@H](Cc2cn(CC(=O)O)c3ccccc23)C(=O)N1C [Example 1039] |
| 1 to 9.9 | CCCC[C@H]1C(=O)N(C)[C@@H](CCCC)C(=O)N[C@@H](CC(C)C)C(=O)NCCCCC(=O)N[C@@H](Cc2ccc(F)cc2)C(=O)N2CCCC[C@H]2C(=O)N[C@@H](CC(N)=O)C(=O)N2CCC[C@H]2C(=O)N[C@@H](CN)C(=O)N[C@@H](CC(C)C)C(=O)N2C[C@H](O)C[C@H]2C(=O)N[C@@H](Cc2c[nH]c3ccccc23)C(=O)N[C@@H](CCN)C(=O)N[C@@H](Cc2cn(CC(=O)O)c3ccccc23)C(=O)N1C [Example 10536] (cyclo([Ava][Phe(4-F)][Pip]NP[Dap]L[Hyp]W[Dab][Trp(1-CH2COOH)][NMeNle][NMeNle]L)) |
| 1 to 9.9 | CCCC[C@H]1C(=O)N(C)[C@@H](CCCC)C(=O)N[C@@H](CC(C)C)C(=O)N[C@H](C)C(=O)NCC(=O)N[C@@H](Cc2ccc(O)cc2)C(=O)N(C)[C@@H](C)C(=O)N[C@@H](CC(N)=O)C(=O)N2CCC[C@H]2C(=O)N[C@@H](CN)C(=O)N[C@@H](CC(C)C)C(=O)N2C[C@H](O)C[C@H]2C(=O)N[C@@H](Cc2c[nH]c3ccccc23)C(=O)N[C@@H](CCN)C(=O)N[C@@H](Cc2c[nH]c3ccccc23)C(=O)N1C [Example 5007] (cyclo([Dab]W[NMeNle][NMeNle]L[dA]GY[NMeA]NP[Dap]L[Hyp]W)) |
